These results are taken from US12686866B2, “Methods of treating cancer by suppression of FAMIN expression” (Cambridge Enterprise Limited, priority 2018, dated 2026).

Each structure is given as a SMILES string.

What all share (type): biochemical
For test [1], the target named is T1, recombinant FAMIN (Homo sapiens, UniProt Q8IV20).
T1 sequence (Q8IV20 1-430): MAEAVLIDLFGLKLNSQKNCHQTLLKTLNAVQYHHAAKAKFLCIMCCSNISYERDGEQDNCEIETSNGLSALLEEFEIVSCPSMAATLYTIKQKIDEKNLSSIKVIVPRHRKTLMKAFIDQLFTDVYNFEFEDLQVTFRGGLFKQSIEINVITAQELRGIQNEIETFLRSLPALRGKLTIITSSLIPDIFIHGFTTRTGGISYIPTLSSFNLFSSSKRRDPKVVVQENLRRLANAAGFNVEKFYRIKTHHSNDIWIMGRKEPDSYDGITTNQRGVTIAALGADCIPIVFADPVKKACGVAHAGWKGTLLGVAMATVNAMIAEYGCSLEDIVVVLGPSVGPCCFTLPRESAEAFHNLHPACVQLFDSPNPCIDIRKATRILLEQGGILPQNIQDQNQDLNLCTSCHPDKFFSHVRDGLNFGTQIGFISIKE
Put plainly: FAMIN adenosine deaminase activity: inosine generated from adenosine by recombinant FAMIN. The note with it: 10 μg recombinant FAMIN, 10 μM adenosine in PBS, 1 h at 37° C.; FIG. 11A. An excerpt: (§1) FIGS. 11B and 11C show levels of adenine and ribose-1-phosphate (R-1-P) in the reaction described in FIG. 11A.

Test [2] concerns the target T1, recombinant FAMIN. Put plainly: FAMIN purine nucleoside phosphorylase activity: hypoxanthine and R-1-P from inosine with recombinant FAMIN. As to conditions: 10 μg recombinant FAMIN, 10 μM inosine in PBS, 1 h at 37° C.; FIG. 11D, E.
Description: as §1

For test [3], the target named is T1, recombinant FAMIN. Put plainly: FAMIN adenosine phosphorylase activity: adenine and R-1-P from adenosine with recombinant FAMIN. As to conditions: 10 μg recombinant FAMIN, 10 μM adenosine in PBS, 1 h at 37° C., FIG. 11B.
Description: as §1

Regarding `CCCCCC[C@@H]([C@@H](C)O)n1cnc2c(N)ncnc21` (racemic) [EHNA, erythro-9-(2-hydroxy-3-nonyl) adenine], the “effect on FAMIN's adenosine deaminase activity (generation of inosine from adenosine)” value on recombinant FAMIN [1] is recorded as “inhibit FAMIN's adenosine deaminase activity”. Turning to `Nc1nc2c(nc(N)n2[C@@H]2O[C@H](CO)[C@@H](O)[C@H]2O)c(=O)[nH]1` [8-aminoguanosine], on recombinant FAMIN [2], the “effect on FAMIN's purine nucleoside phosphorylase activity (hypoxanthine and R-1-P levels)” value is “active on FAMIN's purine nucleoside phosphorylase activity”. The “effect on FAMIN's adenosine phosphorylase activity (adenine and R-1-P levels)” value at recombinant FAMIN [3] is “leaving FAMIN's adenosine phosphorylase activity intact”.
